How the values were obtained:
Assay type in all cases: functional
MOLT-4 [1] = assay: Growth inhibition of human MOLT4 cells assessed as cell growth at 5X10'-9 M after 48 hrs by sulforhodamine B assay; conditions: MOLT-4, 48 h, read-out: Activity
A549 = assay: Growth inhibition of human A549/ATCC cells assessed as cell growth at 5X10'-6 M after 48 hrs by sulforhodamine B assay; conditions: A549, 48 h, read-out: Activity
MDA-MB-468 [2] = assay: Growth inhibition of human MDA-MB-468 cells assessed as cell growth at 5X10'-7 M after 48 hrs by sulforhodamine B assay; conditions: MDA-MB-468, 48 h, read-out: Activity
MDA-MB-231 = assay: Growth inhibition of human MDA-MB-231 cells assessed as cell growth at 5X10'-7 M after 48 hrs by sulforhodamine B assay; conditions: MDA-MB-231, 48 h, read-out: Activity
DU-145 = assay: Growth inhibition of human DU145 cells assessed as cell growth at 5X10'-8 M after 48 hrs by sulforhodamine B assay; conditions: DU-145, 48 h, read-out: Activity
RXF 393 [3] = assay: Growth inhibition of human RXF393 cells assessed as cell growth at 5X10'-8 M after 48 hrs by sulforhodamine B assay; conditions: RXF 393, 48 h, read-out: Activity
SF-268 = assay: Growth inhibition of human SF268 cells assessed as cell growth at 5X10'-8 M after 48 hrs by sulforhodamine B assay; conditions: SF-268, 48 h, read-out: Activity
CCRF-CEM = assay: Growth inhibition of human CCRF-CEM cells assessed as cell growth at 5X10'-8 M after 48 hrs by sulforhodamine B assay; conditions: read-out: Activity
SK-MEL-5 = assay: Growth inhibition of human SK-MEL-5 cells assessed as cell growth at 5X10'-9 M after 48 hrs by sulforhodamine B assay; conditions: SK-MEL-5, 48 h, read-out: Activity
Malme-3M = assay: Growth inhibition of human MALME-3M cells assessed as cell growth at 3X10'-7 M after 48 hrs by sulforhodamine B assay; conditions: read-out: Activity
NCI-H23 = assay: Growth inhibition of human NCI-H23 cells assessed as cell growth at 3X10'-7 M after 48 hrs by sulforhodamine B assay; conditions: NCI-H23, 48 h, read-out: Activity
SR = assay: Growth inhibition of human SR cells assessed as cell growth at 3X10'-7 M after 48 hrs by sulforhodamine B assay; conditions: read-out: Activity
RPMI-8226 [4] = assay: Growth inhibition of human RPMI8226 cells assessed as cell growth at 3X10'-7 M after 48 hrs by sulforhodamine B assay; conditions: RPMI-8226, 48 h, read-out: Activity
HL-60(TB) = assay: Growth inhibition of human HL-60(TB) cells assessed as cell growth at 3X10'-7 M after 48 hrs by sulforhodamine B assay; conditions: HL-60, 48 h, read-out: Activity
MDA-MB-468 [5] = assay: Growth inhibition of human MDA-MB-468 cells assessed as cell growth at 3X10'-8 M after 48 hrs by sulforhodamine B assay; conditions: MDA-MB-468, 48 h, read-out: Activity
RXF 393 [6] = assay: Growth inhibition of human RXF393 cells assessed as cell growth at 3X10'-8 M after 48 hrs by sulforhodamine B assay; conditions: RXF 393, 48 h, read-out: Activity
A498 = assay: Growth inhibition of human A498 cells assessed as cell growth at 3X10'-8 M after 48 hrs by sulforhodamine B assay; conditions: A498, 48 h, read-out: Activity
LOX IMVI = assay: Growth inhibition of human LOXIMVI cells assessed as cell growth at 3X10'-8 M after 48 hrs by sulforhodamine B assay; conditions: read-out: Activity
COLO 205 = assay: Growth inhibition of human COLO205 cells assessed as cell growth at 3X10'-8 M after 48 hrs by sulforhodamine B assay; conditions: COLO 205, 48 h, read-out: Activity
UO-31 = assay: Growth inhibition of human UO31 cells assessed as cell growth at 3X10'-5 M after 48 hrs by sulforhodamine B assay; conditions: UO-31, 48 h, read-out: Activity
ACHN = assay: Growth inhibition of human ACHN cells assessed as cell growth at 3X10'-5 M after 48 hrs by sulforhodamine B assay; conditions: read-out: Activity
786-0 [7] = assay: Growth inhibition of human 786-0 cells assessed as cell growth at 3X10'-9 M after 48 hrs by sulforhodamine B assay; conditions: 786-0, 48 h, read-out: Activity
SF-295 = assay: Growth inhibition of human SF295 cells assessed as cell growth at 3X10'-5 M after 48 hrs by sulforhodamine B assay; conditions: SF-295, 48 h, read-out: Activity
SW-620 = assay: Growth inhibition of human SW620 cells assessed as cell growth at 3X10'-5 M after 48 hrs by sulforhodamine B assay; conditions: SW-620, 48 h, read-out: Activity
HCT-15 = assay: Growth inhibition of human HCT15 cells assessed as cell growth at 3X10'-5 M after 48 hrs by sulforhodamine B assay; conditions: HCT-15, 48 h, read-out: Activity
MOLT-4 [8] = assay: Growth inhibition of human MOLT4 cells assessed as cell growth at 3X10'-5 M after 48 hrs by sulforhodamine B assay; conditions: MOLT-4, 48 h, read-out: Activity
BT-549 = assay: Growth inhibition of human BT549 cells assessed as cell growth at 3X10'-6 M after 48 hrs by sulforhodamine B assay; conditions: BT-549, 48 h, read-out: Activity
PC-3 = assay: Growth inhibition of human PC3 cells assessed as cell growth at 3X10'-6 M after 48 hrs by sulforhodamine B assay; conditions: PC-3, 48 h, read-out: Activity
SNB-19 = assay: Growth inhibition of human SNB19 cells assessed as cell growth at 3X10'-9 M after 48 hrs by sulforhodamine B assay; conditions: SNB-19, 48 h, read-out: Activity
KM12 = assay: Growth inhibition of human KM12 cells assessed as cell growth at 3X10'-9 M after 48 hrs by sulforhodamine B assay; conditions: KM12, 48 h, read-out: Activity
HT-29 = assay: Growth inhibition of human HT-29 cells assessed as cell growth at 3X10'-9 M after 48 hrs by sulforhodamine B assay; conditions: HT-29, 48 h, read-out: Activity
RPMI-8226 [9] = assay: Growth inhibition of human RPMI8226 cells assessed as cell growth at 3X10'-9 M after 48 hrs by sulforhodamine B assay; conditions: RPMI-8226, 48 h, read-out: Activity
786-0 [10] = assay: Growth inhibition of human 786-0 cells assessed as cell growth at 3X10'-6 M after 48 hrs by sulforhodamine B assay; conditions: 786-0, 48 h, read-out: Activity
UACC-257 = assay: Growth inhibition of human UACC257 cells assessed as cell growth at 3X10'-6 M after 48 hrs by sulforhodamine B assay; conditions: UACC-257, 48 h, read-out: Activity
[11] = Growth inhibition of human HCC2998 cells assessed as cell growth at 3X10'-6 M after 48 hrs by sulforhodamine B assay; conditions: HCC 2998, 48 h, read-out: Activity
RXF 393 [12] = assay: Growth inhibition of human RXF393 cells assessed as cell growth at 3X10'-7 M after 48 hrs by sulforhodamine B assay; conditions: RXF 393, 48 h, read-out: Activity

Structure (SMILES): COc1cc(-c2nn(-c3cccc(NC(=O)Nc4ccc(Cl)c(Cl)c4)c3)cc2-c2ccncc2)ccc1Cl
- growth at 0.005 µM (MOLT-4 [1]): 103%
- growth at 5 µM (A549): 3%
- growth at 0.5 µM (MDA-MB-468 [2]): 55%
- growth at 0.5 µM (MDA-MB-231): 66%
- growth at 0.05 µM (DU-145): 110%
- growth at 0.05 µM (RXF 393 [3]): 94%
- growth at 0.05 µM (SF-268): 102%
- growth at 0.05 µM (CCRF-CEM): 98%
- growth at 0.005 µM (SK-MEL-5): 98%

Structure (SMILES): COc1cc(-c2nn(-c3cccc(NC(=O)Nc4cccc(C(F)(F)F)c4)c3)cc2-c2ccncc2)ccc1Cl
- growth at 0.005 µM (MOLT-4 [1]): 94%
- growth at 5 µM (A549): 3%
- growth at 0.5 µM (MDA-MB-468 [2]): 57%
- growth at 0.5 µM (MDA-MB-231): 73%
- growth at 0.05 µM (DU-145): 101%
- growth at 0.05 µM (RXF 393 [3]): 101%
- growth at 0.05 µM (SF-268): 93%
- growth at 0.05 µM (CCRF-CEM): 102%
- growth at 0.005 µM (SK-MEL-5): 99%

Structure (SMILES): COc1cc(-c2nn(-c3cccc(NC(=O)Nc4cc(C(F)(F)F)cc(C(F)(F)F)c4)c3)cc2-c2ccncc2)ccc1Cl
- growth at 0.005 µM (MOLT-4 [1]): 104%
- growth at 5 µM (A549): -31%
- growth at 0.5 µM (MDA-MB-468 [2]): 41%
- growth at 0.5 µM (MDA-MB-231): 69%
- growth at 0.05 µM (DU-145): 111%
- growth at 0.05 µM (RXF 393 [3]): 92%
- growth at 0.05 µM (SF-268): 105%
- growth at 0.05 µM (CCRF-CEM): 94%
- growth at 0.005 µM (SK-MEL-5): 99%

Structure (SMILES): COc1cc(-c2nn(-c3cccc(NC(=O)c4cccc(C(F)(F)F)c4)c3)cc2-c2ccncc2)ccc1Cl
- growth at 0.005 µM (MOLT-4 [1]): 99%
- growth at 5 µM (A549): 19%
- growth at 0.5 µM (MDA-MB-468 [2]): 89%
- growth at 0.5 µM (MDA-MB-231): 77%
- growth at 0.05 µM (DU-145): 95%
- growth at 0.05 µM (RXF 393 [3]): 99%
- growth at 0.05 µM (SF-268): 93%
- growth at 0.05 µM (CCRF-CEM): 98%
- growth at 0.005 µM (SK-MEL-5): 98%

Structure (SMILES): COc1cc(-c2nn(-c3cccc(NC(=O)c4ccc(Cl)c(C(F)(F)F)c4)c3)cc2-c2ccncc2)ccc1Cl
- growth at 0.3 µM (Malme-3M): 88%
- growth at 0.3 µM (NCI-H23): 92%
- growth at 0.3 µM (SR): 82%
- growth at 0.3 µM (RPMI-8226 [4]): 94%
- growth at 0.3 µM (HL-60(TB)): 116%
- growth at 0.03 µM (MDA-MB-468 [5]): 91%
- growth at 0.03 µM (RXF 393 [6]): 99%
- growth at 0.03 µM (A498): 89%
- growth at 0.03 µM (LOX IMVI): 91%
- growth at 0.03 µM (COLO 205): 97%
- growth at 30 µM (UO-31): 11%
- growth at 30 µM (ACHN): 32%
- growth at 0.003 µM (786-0 [7]): 94%
- growth at 30 µM (SF-295): -10%
- growth at 30 µM (SW-620): 24%
- growth at 30 µM (HCT-15): 25%
- growth at 30 µM (MOLT-4 [8]): 24%
- growth at 3 µM (BT-549): 62%
- growth at 3 µM (PC-3): 31%
- growth at 0.003 µM (SNB-19): 95%
- growth at 0.003 µM (KM12): 98%
- growth at 0.003 µM (HT-29): 90%
- growth at 0.003 µM (RPMI-8226 [9]): 97%
- growth at 3 µM (786-0 [10]): 71%
- growth at 3 µM (UACC-257): 60%
- growth at 3 µM [11]: 63%
- growth at 0.3 µM (RXF 393 [12]): 89%

— ChEMBL document CHEMBL2440076, “New triarylpyrazoles as broad-spectrum anticancer agents: design, synthesis, and biological evaluation” (Eur J Med Chem, 2013)
